Like-named read-outs stand apart in the source and are kept apart here.
Experiments:
Assay type in all cases: biochemical
Recombinant human Src = target: T1, Recombinant human Src (Homo sapiens, UniProt P12931); experiment: Src tyrosine kinase activity, poly E4Y / 32P-ATP phosphorylation assay; settings: for inhibition at 15 µg/mL: compound at 15 μg/mL
T1 construct: made in house; host or cells: baculovirus-insect cell system

Recombinant Csk = Recombinant Csk (Homo sapiens, UniProt P41240); experiment: Csk tyrosine kinase activity, poly E4Y / 32P-ATP phosphorylation assay
FGF receptor (FGFr) = experiment: FGFr tyrosine kinase activity, poly E4Y / 32P-ATP phosphorylation assay
[1] = poly E4Y / 32P-ATP, Formula IV compounds
[2] = Table 3, Formula II compounds, NI = no inhibition at 100 μg/mL
[3] = Table 2, Formula I compounds, NI = no inhibition at 100 μg/mL
[4] = Table 3, read-out: % Inhibition at 15 μg/mL Src (%)

T1 sequence (P12931 whole entry): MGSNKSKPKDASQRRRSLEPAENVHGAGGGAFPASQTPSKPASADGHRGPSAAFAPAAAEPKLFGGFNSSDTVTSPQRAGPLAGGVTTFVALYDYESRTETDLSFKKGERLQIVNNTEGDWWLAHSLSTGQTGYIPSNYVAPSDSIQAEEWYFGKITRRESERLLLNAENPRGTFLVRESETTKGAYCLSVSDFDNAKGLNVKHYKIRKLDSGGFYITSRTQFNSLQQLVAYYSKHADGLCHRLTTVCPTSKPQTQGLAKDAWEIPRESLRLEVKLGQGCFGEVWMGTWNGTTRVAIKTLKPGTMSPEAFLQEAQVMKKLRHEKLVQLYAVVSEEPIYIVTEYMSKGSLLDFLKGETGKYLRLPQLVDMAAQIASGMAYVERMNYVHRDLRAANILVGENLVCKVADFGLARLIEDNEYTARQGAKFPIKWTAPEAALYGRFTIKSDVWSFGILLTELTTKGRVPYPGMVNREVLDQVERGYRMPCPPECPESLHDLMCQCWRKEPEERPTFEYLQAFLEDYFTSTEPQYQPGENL
Sequence of Recombinant Csk (P41240 whole entry, species assumed): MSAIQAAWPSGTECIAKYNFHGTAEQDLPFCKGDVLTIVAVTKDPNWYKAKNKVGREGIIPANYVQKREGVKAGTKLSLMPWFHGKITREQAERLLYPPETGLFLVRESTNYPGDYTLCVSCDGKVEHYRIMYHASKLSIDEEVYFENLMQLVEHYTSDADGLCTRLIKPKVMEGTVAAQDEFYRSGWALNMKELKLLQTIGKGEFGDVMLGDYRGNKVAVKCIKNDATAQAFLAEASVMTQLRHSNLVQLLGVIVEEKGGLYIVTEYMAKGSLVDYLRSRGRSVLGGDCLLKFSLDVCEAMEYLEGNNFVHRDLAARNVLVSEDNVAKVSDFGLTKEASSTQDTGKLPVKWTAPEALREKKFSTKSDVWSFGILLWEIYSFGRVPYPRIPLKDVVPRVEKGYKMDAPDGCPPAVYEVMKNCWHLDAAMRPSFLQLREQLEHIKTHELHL

**Q.** Which IC50 (Recombinant human Src; [1]) does the source give for `COc1ccc(Oc2ccc(NS(=O)(=O)c3ccc(C)cc3)c(C(=O)O)c2)cc1` [Compound 68, 5-(4-methoxy-phenoxy)-2-(4-toluenesulfonylamino)-benzoic acid] here?
**A.** 133 µM

**Q.** What about the IC50 (Recombinant Csk; [1]) of the same compound?
**A.** 303 µM

**Q.** What about the “IC50 (μM) FGFr” value (FGF receptor (FGFr); [1]) of the same compound?
**A.** NI (NI = no inhibition at 100 μg/mL)

**Q.** Which IC50 (Recombinant human Src; [1]) does the source give for `Cc1ccc(S(=O)(=O)Nc2ccc(Sc3ccc(Cl)cc3)c([N+](=O)[O-])c2)cc1` [Compound 69, N-[4-(4-chloro-phenylsulfanyl)-3-nitro-phenyl]-4-toluenesulfonamide] here?
**A.** 1970 µM

**Q.** What about the IC50 (Recombinant Csk; [1]) of the same compound?
**A.** 986 µM

**Q.** And the “IC50 (μM) FGFr” value (FGF receptor (FGFr); [1])?
**A.** NI (NI = no inhibition at 100 μg/mL)

**Q.** For `CCCCS(=O)(=O)Nc1ccc(Oc2ccc(OC)cc2)cc1NS(=O)(=O)CCCC` [Compound 12l, butane-1-sulfonic acid [2-(butane-1-sulfonylamino)-4-(4-methoxy-phenoxy)-phenyl]-amide], which IC50 (Recombinant human Src; [2]) is on record?
**A.** 40 µM

**Q.** What about the IC50 (Recombinant Csk; [2]) of the same compound?
**A.** > 212 µM

**Q.** And the IC50 (FGF receptor (FGFr); [2])?
**A.** 81 µM

**Q.** With `Cc1ccc(S(=O)(=O)Nc2ccc(Sc3ccc(Cl)cc3)cc2NS(=O)(=O)c2ccc(C)cc2)cc1` [Compound 12ff, N-[4-(4-chloro-phenylsulfanyl)-2-(4-toluenesulfonylamino)-phenyl]-4-toluenesulfonamide] as the compound, how does the IC50 (Recombinant human Src; [2]) read?
**A.** 4 µM

**Q.** And the IC50 (Recombinant Csk; [2])?
**A.** 8.6 µM

**Q.** And the IC50 (FGF receptor (FGFr); [2])?
**A.** 3.6 µM

**Q.** Which results are given for `COc1ccc(Oc2ccc(NS(=O)(=O)c3ccc4ccccc4c3)c(NS(=O)(=O)c3ccc4ccccc4c3)c2)cc1` [Compound 12i, naphthalene-2-sulfonic acid [4-(4-methoxy-phenoxy)-2-(naphthalen-2-yl-sulfonylamino)-phenyl]-amide]?
**A.** IC50 (Recombinant human Src; [2]): 8 µM; IC50 (Recombinant Csk; [2]): > 164 µM; IC50 (FGF receptor (FGFr); [2]): 48 µM

**Q.** For `Cc1ccc(S(=O)(=O)Nc2cc(Sc3ccc(O)cc3)c([N+](=O)[O-])cc2NS(=O)(=O)c2ccc(C)cc2)cc1` [Compound 4d, N-[4-(4-hydroxy-phenylsulfanyl)-5-nitro-2-(4-toluenesulfonylamino)-phenyl]-4-toluenesulfonamide], which IC50 (Recombinant human Src; [3]) is on record?
**A.** 5.5 µM

**Q.** What about the IC50 (Recombinant Csk; [3]) of the same compound?
**A.** 23.9 µM

**Q.** What about the IC50 (FGF receptor (FGFr); [3]) of the same compound?
**A.** 23.9 µM

**Q.** Which IC50 (Recombinant human Src; [3]) does the source give for `COc1ccc(CSc2cc(NS(=O)(=O)c3ccc(C)cc3)c(NS(=O)(=O)c3ccc(C)cc3)cc2[N+](=O)[O-])cc1` [Compound 4s, N-[4-(4-methoxy-benzylsulfanyl)-5-nitro-2-(4-toluenesulfonylamino)-phenyl]-4-toluenesulfonamide] here?
**A.** 1.3 µM

**Q.** And the IC50 (Recombinant Csk; [3])?
**A.** 5.7 µM

**Q.** And the IC50 (FGF receptor (FGFr); [3])?
**A.** 4.3 µM

**Q.** What does the source list for `COc1ccc(Oc2ccc(NS(=O)(=O)c3cccc([N+](=O)[O-])c3)c(NS(=O)(=O)c3cccc([N+](=O)[O-])c3)c2)cc1` [Compound 12f, N-[4-(4-methoxy-phenoxy)-2-(3-nitro-benzenesulfonylamino)-phenyl]-3-nitro-benzenesulfonamide]?
**A.** IC50 (Recombinant human Src; [2]): 20 µM; IC50 (Recombinant Csk; [2]): > 167 µM; IC50 (FGF receptor (FGFr); [2]): 35 µM

**Q.** `COc1ccc(Oc2ccc(NS(=O)(=O)c3ccc(OC)cc3)c(NS(=O)(=O)c3ccc(OC)cc3)c2)cc1` [Compound 12k, N-[2-(4-methoxy-benzenesulfonylamino)-4-(4-methoxy-phenoxy)-phenyl]-4-methoxy-benzenesulfonamide] was tested. Which IC50 (Recombinant human Src; [2]) did it give?
**A.** 21 µM

**Q.** And the IC50 (Recombinant Csk; [2])?
**A.** 88 µM

**Q.** What about the IC50 (FGF receptor (FGFr); [2]) of the same compound?
**A.** 44 µM

**Q.** Which results are given for `COc1ccc(Oc2ccc(NS(=O)(=O)c3ccc(F)cc3)c(NS(=O)(=O)c3ccc(F)cc3)c2)cc1` [Compound 12d, 4-fluoro-N-[2-(4-fluoro-benzenesulfonylamino)-4-(4-methoxy-phenoxy)-phenyl]-benzenesulfonamide]?
**A.** IC50 (Recombinant human Src; [2]): 24 µM; IC50 (Recombinant Csk; [2]): 73 µM; IC50 (FGF receptor (FGFr); [2]): 35 µM

**Q.** With `Cc1ccc(S(=O)(=O)Nc2ccc(OCc3cccc(Cl)c3)cc2NS(=O)(=O)c2ccc(C)cc2)cc1` [Compound 15c, N-[4-(3-chloro-benzyloxy)-2-(4-toluenesulfonylamino)-phenyl]-4-toluenesulfonamide] as the compound, how does the IC50 (Recombinant human Src; [2]) read?
**A.** 27 µM

**Q.** And the IC50 (Recombinant Csk; [2])?
**A.** > 180 µM

**Q.** What about the IC50 (FGF receptor (FGFr); [2]) of the same compound?
**A.** 54 µM

**Q.** How did the IC50 (Recombinant human Src; [2]) turn out when `Cc1ccc(S(=O)(=O)Nc2ccc(OCCCO)cc2NS(=O)(=O)c2ccc(C)cc2)cc1` [Compound 12bb, N-[4-(3-hydroxy-propoxy)-2-(4-toluenesulfonylamino)-phenyl]-4-toluenesulfonamide] was run?
**A.** > 204 µM

**Q.** What about the IC50 (Recombinant Csk; [2]) of the same compound?
**A.** > 204 µM

**Q.** What about the “IC50 (μM) FGFr” value (FGF receptor (FGFr); [2]) of the same compound?
**A.** NI (NI = no inhibition at 100 μg/mL)

**Q.** What does the source list for `Cc1ccc(S(=O)(=O)Nc2ccc(Oc3ccc(F)cc3)cc2NS(=O)(=O)c2ccc(C)cc2)cc1` [Compound 12t, N-[4-(4-fluoro-phenoxy)-2-(4-toluenesulfonylamino)-phenyl]-4-toluenesulfonamide]?
**A.** IC50 (Recombinant human Src; [2]): 19 µM; IC50 (Recombinant Csk; [2]): 105 µM; IC50 (FGF receptor (FGFr); [2]): 40 µM

**Q.** Which results are given for `Cc1ccc(S(=O)(=O)Nc2ccc(Cl)cc2NS(=O)(=O)c2ccc(C)cc2)cc1` [Compound 6, N-[4-chloro-2-(4-toluenesulfonylamino)-phenyl]-4-toluenesulfonamide]?
**A.** IC50 (Recombinant human Src; [2]): > 222 µM; IC50 (Recombinant Csk; [2]): > 222 µM

**Q.** Which results are given for `COc1ccc(Oc2ccc(NS(=O)(=O)c3ccc(C)cc3)c(OP(=O)(O)O)c2)cc1` [Compound 43, [5-(4-methoxy-phenoxy)-2-(4-toluenesulfonylamino)-phenyl]-phosphate]?
**A.** IC50 (Recombinant human Src; [1]): 13 µM; IC50 (Recombinant Csk; [1]): > 215 µM

**Q.** Which results are given for `COc1ccc(Oc2ccc(NS(=O)(=O)c3ccc([N+](=O)[O-])cc3)c(NS(=O)(=O)c3ccc([N+](=O)[O-])cc3)c2)cc1` [Compound 12r, N-[4-(4-methoxy-phenoxy)-2-(4-nitrobenzenesulfonylamino)-phenyl]-4-nitrobenzenesulfonamide]?
**A.** IC50 (Recombinant human Src; [2]): 6.6 µM; IC50 (Recombinant Csk; [2]): > 167 µM

**Q.** For `COC(=O)c1cc(Oc2ccc(OC)cc2)ccc1NS(=O)(=O)c1ccc(C)cc1` [Compound 67, methyl 5-(4-methoxy-phenoxy)-2-(4-toluenesulfonylamino)-benzoate], which IC50 (Recombinant human Src; [1]) is on record?
**A.** > 234 µM

**Q.** And the IC50 (Recombinant Csk; [1])?
**A.** > 234 µM

**Q.** With `Cc1ccc(S(=O)(=O)Nc2cc(SCc3ccccc3)c([N+](=O)[O-])cc2NS(=O)(=O)c2ccc(C)cc2)cc1` [Compound 4t, N-[4-benzylsulfanyl-5-nitro-2-(4-toluenesulfonylamino)-phenyl]-4-toluenesulfonamide] as the compound, how does the IC50 (Recombinant human Src; [3]) read?
**A.** 1.2 µM

**Q.** And the IC50 (Recombinant Csk; [3])?
**A.** 5.5 µM

**Q.** What does the source list for `Cc1ccc(S(=O)(=O)Nc2ccc(-n3cnc4ccccc43)cc2NS(=O)(=O)c2ccc(C)cc2)cc1` [Compound 17b, N-[4-(benzimidazol-1-yl)-2-(4-toluenesulfonylamino)-phenyl]-4-toluenesulfonamide]?
**A.** IC50 (Recombinant human Src; [2]): 21 µM; IC50 (Recombinant Csk; [2]): 83 µM

**Q.** Which IC50 (Recombinant human Src; [2]) does the source give for `Cc1ccc(S(=O)(=O)Nc2ccc(C(=O)Nc3ccccc3)cc2NS(=O)(=O)c2ccc(C)cc2)cc1` [Compound 22e, N-phenyl-3,4-bis-(4-toluenesulfonylamino)-benzamide] here?
**A.** 149 µM

**Q.** Which inhibition at 15 µg/mL (Recombinant human Src; read-out: % Inhibition at 15 μg/mL Src %) does the source give for `COc1ccc(OCc2ccc(CNC(=O)c3ccc(C)cc3)c(NS(=O)(=O)c3ccc(C)cc3)c2)cc1` [Compound 71ff, N-[4-(4-methoxy-phenoxymethyl)-2-(4-toluenesulfonylamino)-benzyl]-4-toluamide] here?
**A.** 4%

**Q.** How did the inhibition at 15 µg/mL (Recombinant human Src; [4]) turn out when `COc1ccc(Oc2ccc(NS(C)(=O)=O)c(NS(=O)(=O)c3ccc(C)cc3)c2)cc1` [Compound 22p, N-[2-methanesulfonylamino-5-(4-methoxy-phenoxy)-phenyl]-4-toluenesulfonamide] was run?
**A.** 17%

**Q.** Which inhibition at 15 µg/mL (Recombinant human Src; [4]) does the source give for `COc1ccc(Oc2ccc(NS(=O)(=O)c3ccc(C)cc3)c(NS(=O)(=O)c3c(C)noc3C)c2)cc1` [Compound 22n, 3,5-dimethyl-N-[5-(4-methoxy-phenoxy)-2-(4-toluenesulfonylamino)-phenyl]-isoxazole-4-sulfonamide] here?
**A.** 5%

— US20060004197A1, “Sulfonamide-based compounds as protein tyrosine kinase inhibitors” (priority 2004, published 2006)
